US9359409B2, “Antimicrobial peptides, compositions comprising the same and uses thereof” (priority 2012, dated 2016)
Ends that are not written are not given here. Peptide text beside a SMILES is read from it.

What was measured:
[1] = test system: Staphylococcus cohnii
Method: (§1) The 5 designed and synthesized peptides of the invention, plus omiganan (peptide of the state of the art) were evaluated for their antimicrobial capacity in microdilution assays for determining the minimum inhibitory concentration (MIC). A first panel of 8 representative strains was analyzed in these assays, encompassing Gram positive and Gram negative bacteria. […] The lowest MIC values indicate a higher antimicrobial potency.
(§2) Subsequently, an analysis of a panel of clinical isolates including strains with different resistance mechanisms against conventional antibiotics was carried out, all of which are of clinical relevance. […] In Table 3 the results for a panel of Gram negative bacteria are shown, and in Table 4 for a panel of […] bacteria. In these tables the detected gene/s responsible for the resistance against antibiotics for each strain, are included.
(§3) Antimicrobial activity was analyzed by means of the determination of the MIC (minimum inhibitory concentration) by the microdilution technique. The technique was carried out in the standard fashion according to (CLSI M07-A9 Vol. 32 No 2. January 2012). The peptide concentration range used was from 0.5 μg/mL to 512 μg/mL in two-fold serial dilutions. The used medium was MH Difco broth supplemented with cations, at a final concentration of Ca^++20-25 mg/L and Mg^++10-12.5 mg/L. The working inoculum used corresponds to a 1/100 dilution of a bacterial suspension equivalent to 0.5 in the Mc Farland scale.

[2] = test system: Escherichia coli
Method: as §1, §2, §3

[3] = test system: Klebsiella pneumoniae
Method: as §1, §2, §3

[4] = test system: Staphylococcus warneri
Method: as §1, §2, §3

[5] = test system: Pseudomonas aeruginosa; test: MIC by broth microdilution; assay type: cell-based
Method: as §1, §2, §3

[6] = test system: K. pneumoniae; assay type: cell-based
Method: (§4) In vitro sensitivity assay of aerobically growing bacteria, using the disc diffusion method was performed according to the standards in the M2 document of the CLSI (Clinical and Laboratory Standards Institute: Performance Standards for Antimicrobial Disk Susceptibility Tests.) using the non-amidated peptides
(§5) In brief, intermediate solutions (10×) of the antimicrobial non-amidated peptides were prepared by serial dilutions 1:2, 1:4 and 1:8 by two-fold dilutions. Then, one part of the solution of the antimicrobial peptide 10× was added to nine parts of melted bacteriological agar. The antibiotic solution was added for each dilution, in the melted agar and cooled to 45-50° C. in a water bath. Then, the agar-antibiotic mixture was placed in a Petri dish until a 3-4 mm depth was reached. The inoculum is prepared with a turbidity of 0.5 in the McFarland scale (approximately 1-2 10^8 CFU/ml). The final inoculum required for the agar dilution test is 10^4 colony forming units (CFU) per “spot” having 5-8 mm in diameter. The inoculated plates must be incubated upside down at 35° C. for a period of 16-20 hs. MIC was recorded as the value of the lower dilution completely inhibiting bacterial development, without considering the development of a single colony or a slight film caused by the inoculum deposit. The final point in these cases will correspond to the concentration at which there is more than 80% reduction in growth as compared with the control.

[7] = test system: S. aureus; assay type: cell-based
Method: as §4, §5

[8] = test system: S. cohnii; assay type: cell-based
Method: as §4, §5

[9] = test system: S. warnerii; assay type: cell-based
Method: as §4, §5

[10] = test system: P. aeruginosa; assay type: cell-based
Method: as §4, §5

[11] = test system: E. coli; assay type: cell-based
Method: as §4, §5

Row | Compound | MIC [1] | MIC [2] | MIC [3] | MIC [4] | MIC [5] | MIC in agar dilution [6] | MIC in agar dilution [7] | MIC in agar dilution [8] | MIC in agar dilution [9] | MIC in agar dilution [10] | MIC in agar dilution [11]
1 | CC[C@H](C)[C@H](NC(=O)[C@H](CCCCN)NC(=O)[C@H](CCCNC(=N)N)NC(=O)[C@H](CC(N)=O)NC(=O)CNC(=O)[C@H](CCCNC(=N)N)NC(=O)[C@H](Cc1ccccc1)NC(=O)[C@@H](NC(=O)[C@H](CS)NC(=O)[C@H](Cc1c[nH]cn1)NC(=O)[C@H](CC(C)C)NC(=O)[C@@H]1CCCN1C(=O)[C@H](CCC(N)=O)NC(=O)[C@@H]1CCCN1C(=O)[C@@H](NC(=O)[C@H](CC(N)=O)NC(=O)[C@@H]1CCCN1C(=O)[C@H](CC(C)C)NC(=O)CNC(=O)[C@@H](NC(=O)CNC(=O)[C@H](CO)NC(=O)[C@H](CC(C)C)NC(=O)[C@H](CC(C)C)NC(=O)[C@H](CC(=O)O)NC(=O)[C@H](CS)NC(=O)[C@@H](NC(=O)[C@@H](N)[C@@H](C)O)[C@@H](C)O)C(C)C)C(C)C)C(C)C)C(=O)N[C@@H](CCCCN)C(=O)N[C@@H](Cc1c[nH]c2ccccc12)C(N)=O [peptide 4] (H-TTCDLLSGVGLPNVPQPLHCVFRGNRKIKW-NH2) | >256 µg/mL | >256 µg/mL | >256 µg/mL | >256 µg/mL | >256 µg/mL | >128 µg/mL | >128 µg/mL | >128 µg/mL | >128 µg/mL | >128 µg/mL | >128 µg/mL
2 | FGKEKKAWWRRRKWLK-NH2 [peptide 3, FGKEKKAWWRRRKWLK] | 4 µg/mL | 64 µg/mL | 128 µg/mL | 8 µg/mL | 128 µg/mL | >128 µg/mL | >128 µg/mL | 32 µg/mL | 32 µg/mL | >128 µg/mL | >128 µg/mL
